Measurements: US8921552B2, “Benzothiazole hybrids useful as anticancer agents and process for the preparation thereof” (Council of Scientific & Industrial Research, priority 2011, dated 2014)

How the values were obtained:
A-549 = assay: In vitro cytotoxicity, SRB assay, lung cancer cell line A-549; type: cell-based, human; conditions: A-549 (lung); for inhibition at 10 µM: Homo sapiens, A549, 48 h exposure, read-out: % of growth inhibition
Source text: (§1) The benzothiazole hybrids has been tested against seven human tumor cell lines derived from six cancer types (lung cancer, colon cancer, CNS cancer, ovarian cancer, prostate cancer and breast cancer). For these compounds results are expressed as percent of cell growth inhibition relative to that of untreated control cells.

IGR-OV-1 = assay: In vitro cytotoxicity, SRB assay, ovarian cancer cell line IGR-OV-1; type: cell-based, human; conditions: IGR-OV-1 (ovarian); for inhibition at 10 µM: Homo sapiens, IGROV-1, 48 h exposure, read-out: % of growth inhibition
Source text: as §1

Colo-205 = assay: In vitro cytotoxicity, SRB assay, colon cancer cell line Colo-205; type: cell-based, human; conditions: Colo-205 (colon); for inhibition at 10 µM: Homo sapiens, 48 h exposure, read-out: % of growth inhibition
Source text: as §1

SW-620 [1] = assay: In vitro cytotoxicity, SRB assay, colon cancer cell line SW-620; type: cell-based; conditions: Homo sapiens, SW-620 (colon), 48 h exposure, read-out: % of growth inhibition
Protocol: as §1, with “cells. A protocol of 48 h continuous drug exposure has been used, and a sulforhodamine B (SRB) protein assay was used to estimate cell viability or growth.” for “cells.”
(§2) The compounds 9b, 9h, 9m, 9r, 15c, 15h, 15m, 15r, 10b, 10h, 10m, 10r, 16c, 16h and 16m were evaluated for in vitro anticancer activity against seven human tumor cells derived from six cancer types (lung cancer, colon cancer, CNS cancer, ovarian cancer, prostate cancer and breast cancer) at concentration of 10 μM and the results are shown in Table 1.

PC-3 = assay: In vitro cytotoxicity, SRB assay, prostate cancer cell line PC-3; type: cell-based, human; conditions: PC-3 (prostate); for inhibition at 10 µM: Homo sapiens, 48 h exposure, read-out: % of growth inhibition
Source text: as §1

MCF7 = assay: In vitro cytotoxicity, SRB assay, breast cancer cell line MCF7; type: cell-based, human; conditions: for inhibition at 10 µM: Homo sapiens, 48 h exposure, read-out: % of growth inhibition
Source text: as §1

SF-295 = assay: In vitro cytotoxicity, SRB assay, CNS cancer cell line SF-295; type: cell-based, human; conditions: SF-295 (CNS); for inhibition at 10 µM: Homo sapiens, 48 h exposure, read-out: % of growth inhibition
Source text: as §1

SW-620 [2] = assay: In vitro cytotoxicity, SRB assay, colon cancer cell line SW-620; type: cell-based, human; conditions: SW-620 (colon), reference drug at 1 μM
human tumor cell lines = assay: In vitro anticancer activity, panel of seven human tumor cell lines (SRB assay); type: cell-based; conditions: Homo sapiens; range over the cell lines, 10 μM, exposure period of at least 48 hrs; read-out: percentage growth inhibition for invitro anticancer activity
Protocol: as §1, with “cells. A protocol of 48 h continuous drug exposure has been used, and a sulforhodamine B (SRB) protein assay was used to estimate cell viability or growth.” for “cells.”
as §2

Molecule `O=c1[nH]cc(F)c(=O)[nH]1` [5-Fluoro uracil, reference compound] has an inhibition at 10 µM (A-549) of 64%, an inhibition at 10 µM (IGR-OV-1) of 47% and an inhibition at 10 µM (Colo-205) of 55%. It also gave an inhibition at 10 µM (SW-620 [1]) of 41%, an inhibition at 10 µM (PC-3) of 29% and an inhibition at 10 µM (MCF7) of 66%. The inhibition at 10 µM (SF-295) was 9%.

In the case of `COc1cccc2c1C(=O)c1c(O)c3c(c(O)c1C2=O)C[C@@](O)(C(=O)CO)C[C@@H]3O[C@H]1C[C@H](N)[C@H](O)[C@H](C)O1` [Adriyamycin, reference compound], the “% of growth inhibition” value (A-549; reference drug at 1 μM) is reported as 95%, the “% of growth inhibition” value (IGR-OV-1; reference drug at 1 μM) is reported as 78% and the “% of growth inhibition” value (Colo-205; reference drug at 1 μM) is reported as 77%. The “% of growth inhibition” value (PC-3; reference drug at 1 μM) was 55%, the “% of growth inhibition” value (MCF7; reference drug at 1 μM) was 69% and the “% of growth inhibition” value (SF-295; reference drug at 1 μM) was 55%. For the same molecule, the “% of growth inhibition” value (SW-620 [2]) was 21%.

Work on `COc1ccc(/C=C\c2cc(OC)c(OC)c(OC)c2)cc1OCCCCOc1ccc(-c2nc3ccccc3s2)cc1` [Compound 9h, 2-[4-(4-{2-methoxy-5-[(Z)-2-(3,4,5-trimethoxyphenyl)-1-ethenyl]phenoxy}butoxy)phenyl]-1,3-benzothiazole] yielded an inhibition at 10 µM (A-549) of 63%, an inhibition at 10 µM (IGR-OV-1) of 54% and an inhibition at 10 µM (Colo-205) of 15%. The inhibition at 10 µM (PC-3) was 65%, the inhibition at 10 µM (MCF7) was 64% and the inhibition at 10 µM (SF-295) was 34%. For the same molecule, the inhibition at 10 µM (human tumor cell lines) was 1 to 100%.

Work on `COc1ccc(/C=C\c2cc(OC)c(OC)c(OC)c2)cc1OCCCCOc1cc(-c2nc3ccccc3s2)ccc1OC` [Compound 9m, 2-[4-methoxy-3-(4-{2-methoxy-5-[(Z)-2-(3,4,5-trimethoxyphenyl)-1-ethenyl]phenoxy}butoxy)phenyl]-1,3-benzothiazole] yielded an inhibition at 10 µM (A-549) of 73%, an inhibition at 10 µM (IGR-OV-1) of 58% and an inhibition at 10 µM (Colo-205) of 70%. For the same molecule, the inhibition at 10 µM (PC-3) was 68%, the inhibition at 10 µM (MCF7) was 64% and the inhibition at 10 µM (SF-295) was 44%. The inhibition at 10 µM (human tumor cell lines) was 1 to 100%.
